In general, IC50 refers to the concentration that inhibits the measured activity by half. The term inhibition denotes the drop in the measured response relative to a control, in per cent.

SMILES strings stand for the structures. Activity calls are given as the source filed them. The rule behind the calls is not given here.

The text below walks through data of ChEMBL document CHEMBL4725259 (Bioorg Med Chem, 2020).

Test [1] deals with T1, CX3C chemokine receptor 1 (Homo sapiens, UniProt P49238).
T1 sequence (P49238 whole entry): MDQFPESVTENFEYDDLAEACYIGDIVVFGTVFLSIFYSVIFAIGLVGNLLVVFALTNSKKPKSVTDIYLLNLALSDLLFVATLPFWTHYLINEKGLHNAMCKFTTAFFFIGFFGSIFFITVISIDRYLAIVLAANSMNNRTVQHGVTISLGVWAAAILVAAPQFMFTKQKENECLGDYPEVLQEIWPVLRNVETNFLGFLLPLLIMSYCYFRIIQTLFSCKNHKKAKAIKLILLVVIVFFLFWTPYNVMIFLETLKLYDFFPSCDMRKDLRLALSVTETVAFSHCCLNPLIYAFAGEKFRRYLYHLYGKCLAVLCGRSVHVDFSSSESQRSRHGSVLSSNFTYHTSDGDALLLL
As to the kind of experiment: Antagonist activity at human CX3CR1 expressed in CHO-K1 cells by PathHunter beta-arrestin assay. Format: cell-based.

Test [2] concerns the target D(2) dopamine receptor (Homo sapiens) (UniProt P14416). Briefly: Agonist activity at human DRD2L expressed in CHO-K1 cells at 20 uM by PathHunter beta-arrestin assay relative to control. In kind it is cell-based.
The target of test [3] is T2, C-C chemokine receptor type 8 (Homo sapiens, UniProt P51685). Briefly: Antagonist activity at human CCR8 expressed in CHO-K1 cells by PathHunter beta-arrestin assay. Format: cell-based.
T2 sequence (P51685 whole entry): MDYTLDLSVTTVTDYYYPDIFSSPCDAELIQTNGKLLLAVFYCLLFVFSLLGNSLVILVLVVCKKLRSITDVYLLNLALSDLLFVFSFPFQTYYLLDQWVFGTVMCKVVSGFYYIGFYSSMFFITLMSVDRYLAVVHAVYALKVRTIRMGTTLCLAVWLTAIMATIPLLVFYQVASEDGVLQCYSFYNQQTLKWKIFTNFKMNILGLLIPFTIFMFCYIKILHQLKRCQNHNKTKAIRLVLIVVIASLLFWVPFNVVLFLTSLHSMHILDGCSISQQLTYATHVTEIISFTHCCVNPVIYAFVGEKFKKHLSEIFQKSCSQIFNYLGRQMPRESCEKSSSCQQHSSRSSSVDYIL
Test [4] addresses T3, C-C chemokine receptor type 3 (Homo sapiens, UniProt P51677).
T3 sequence (P51677 whole entry): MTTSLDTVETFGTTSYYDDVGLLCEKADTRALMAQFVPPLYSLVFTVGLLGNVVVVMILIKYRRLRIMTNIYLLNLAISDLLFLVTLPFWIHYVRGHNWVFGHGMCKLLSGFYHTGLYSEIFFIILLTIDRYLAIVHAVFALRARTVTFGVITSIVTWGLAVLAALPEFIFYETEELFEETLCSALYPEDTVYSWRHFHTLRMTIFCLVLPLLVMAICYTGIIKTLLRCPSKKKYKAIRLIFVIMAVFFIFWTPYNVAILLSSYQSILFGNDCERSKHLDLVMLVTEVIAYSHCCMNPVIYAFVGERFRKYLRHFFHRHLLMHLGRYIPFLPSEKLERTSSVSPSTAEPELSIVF
As to the kind of experiment: Antagonist activity at human CCR3 expressed in CHO-K1 cells by PathHunter beta-arrestin assay. In kind it is cell-based.

Test [5] deals with T4, Follicle-stimulating hormone receptor (Homo sapiens) (UniProt P23945).
T4 sequence (whole entry): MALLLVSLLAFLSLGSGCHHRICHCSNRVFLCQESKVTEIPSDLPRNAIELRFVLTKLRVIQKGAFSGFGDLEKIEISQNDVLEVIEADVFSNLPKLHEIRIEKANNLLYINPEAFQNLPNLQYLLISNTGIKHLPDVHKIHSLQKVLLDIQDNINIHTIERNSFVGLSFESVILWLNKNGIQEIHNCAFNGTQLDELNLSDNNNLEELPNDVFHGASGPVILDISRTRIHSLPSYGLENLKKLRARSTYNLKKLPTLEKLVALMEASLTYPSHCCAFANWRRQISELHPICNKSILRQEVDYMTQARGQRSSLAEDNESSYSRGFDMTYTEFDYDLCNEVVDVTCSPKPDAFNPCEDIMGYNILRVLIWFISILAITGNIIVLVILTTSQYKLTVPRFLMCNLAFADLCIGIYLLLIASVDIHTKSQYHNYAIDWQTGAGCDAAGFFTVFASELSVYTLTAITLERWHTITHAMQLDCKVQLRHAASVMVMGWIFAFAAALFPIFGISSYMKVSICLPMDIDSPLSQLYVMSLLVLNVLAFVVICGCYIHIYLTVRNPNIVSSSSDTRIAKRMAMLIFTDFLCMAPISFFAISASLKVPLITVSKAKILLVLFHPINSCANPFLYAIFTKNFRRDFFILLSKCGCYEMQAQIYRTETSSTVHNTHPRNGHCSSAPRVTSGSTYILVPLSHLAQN
As to the kind of experiment: Antagonist activity at human FSHR expressed in CHO-K1 cells at 20 uM by PathHunter beta-arrestin assay relative to control. In kind it is cell-based. The following applies: filed as antagonist.

Test [6] concerns the target T2, C-C chemokine receptor type 8. As to the kind of experiment: Antagonist activity at human CCR8 expressed in CHO-K1 cells at 20 uM by PathHunter beta-arrestin assay relative to control. In kind it is cell-based. The following applies: filed as antagonist.
Test [7] has as its system U2OS. As to the kind of experiment: Agonist activity at NPSR1B in human U2OS cells at 20 uM by PathHunter beta-arrestin assay relative to control. In kind it is cell-based.
Test [8] addresses T5, Vasopressin V2 receptor (Homo sapiens, UniProt P30518). As to the kind of experiment: Agonist activity at human AVPR2 at 20 uM by PathHunter beta-arrestin assay relative to control.
Test [9] concerns the target T6, CX3C chemokine receptor 1 (Homo sapiens) (UniProt P49238).
T6 sequence (whole entry): T1 sequence (P49238 whole entry)
Briefly: Antagonist activity at human CX3CR1 expressed in CHO-K1 cells at 20 uM by PathHunter beta-arrestin assay relative to control. The following applies: filed as antagonist. In kind it is cell-based.

In test [10] the target is T5, Vasopressin V2 receptor. As to the kind of experiment: Antagonist activity at human AVPR2 by PathHunter beta-arrestin assay.
For test [11], the target named is D(2) dopamine receptor (Homo sapiens) (UniProt P14416). As to the kind of experiment: Antagonist activity at human DRD2L expressed in CHO-K1 cells at 20 uM by PathHunter beta-arrestin assay relative to control. In kind it is cell-based. The following applies: filed as antagonist.
D(2) dopamine receptor (Homo sapiens), sequence (P14416 whole entry): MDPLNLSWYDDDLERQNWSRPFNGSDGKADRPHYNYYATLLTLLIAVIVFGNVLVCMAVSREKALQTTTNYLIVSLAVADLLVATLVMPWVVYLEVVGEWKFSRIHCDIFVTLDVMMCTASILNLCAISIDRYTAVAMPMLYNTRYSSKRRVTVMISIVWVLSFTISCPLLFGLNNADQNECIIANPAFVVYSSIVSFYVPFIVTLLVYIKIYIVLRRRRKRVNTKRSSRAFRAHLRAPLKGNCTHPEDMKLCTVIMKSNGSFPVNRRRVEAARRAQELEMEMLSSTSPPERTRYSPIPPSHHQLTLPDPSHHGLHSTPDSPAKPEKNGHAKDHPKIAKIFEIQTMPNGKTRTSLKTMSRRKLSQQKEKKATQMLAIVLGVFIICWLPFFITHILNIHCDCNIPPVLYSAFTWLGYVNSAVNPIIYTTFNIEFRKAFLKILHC
The target of test [12] is T7, Vasopressin V1b receptor (Homo sapiens) (UniProt P47901).
T7 sequence (whole entry): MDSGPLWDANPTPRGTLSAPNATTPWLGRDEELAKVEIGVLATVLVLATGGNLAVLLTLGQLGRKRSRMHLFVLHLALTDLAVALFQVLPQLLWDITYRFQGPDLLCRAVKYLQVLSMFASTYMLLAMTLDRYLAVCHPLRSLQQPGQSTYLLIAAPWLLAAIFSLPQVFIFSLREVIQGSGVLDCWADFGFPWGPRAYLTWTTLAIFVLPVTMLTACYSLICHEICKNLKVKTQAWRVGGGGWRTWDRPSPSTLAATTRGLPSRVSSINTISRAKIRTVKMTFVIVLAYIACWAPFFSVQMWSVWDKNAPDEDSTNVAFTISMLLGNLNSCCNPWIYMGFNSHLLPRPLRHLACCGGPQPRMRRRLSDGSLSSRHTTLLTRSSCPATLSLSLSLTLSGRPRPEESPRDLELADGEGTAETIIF
Briefly: Antagonist activity at human AVPR1B expressed in CHO-K1 cells at 20 uM by PathHunter beta-arrestin assay. The following applies: filed as antagonist. Format: cell-based.

Test [13] concerns the target T8, Oxytocin receptor (Homo sapiens, UniProt P30559).
T8 sequence (P30559 whole entry): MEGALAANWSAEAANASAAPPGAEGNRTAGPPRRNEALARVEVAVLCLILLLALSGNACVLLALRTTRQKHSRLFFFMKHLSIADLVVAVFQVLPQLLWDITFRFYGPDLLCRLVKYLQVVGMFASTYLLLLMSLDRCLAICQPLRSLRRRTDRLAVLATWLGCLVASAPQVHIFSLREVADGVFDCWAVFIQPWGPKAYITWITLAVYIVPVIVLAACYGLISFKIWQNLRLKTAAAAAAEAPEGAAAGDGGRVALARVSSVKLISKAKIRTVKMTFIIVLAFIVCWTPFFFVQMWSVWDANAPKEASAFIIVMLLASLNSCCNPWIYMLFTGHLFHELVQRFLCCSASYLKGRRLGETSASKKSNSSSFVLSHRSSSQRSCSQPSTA
As to the kind of experiment: Antagonist activity at human OXTR expressed in CHO-K1 cells by PathHunter beta-arrestin assay. In kind it is cell-based.

T5 sequence (P30518 whole entry): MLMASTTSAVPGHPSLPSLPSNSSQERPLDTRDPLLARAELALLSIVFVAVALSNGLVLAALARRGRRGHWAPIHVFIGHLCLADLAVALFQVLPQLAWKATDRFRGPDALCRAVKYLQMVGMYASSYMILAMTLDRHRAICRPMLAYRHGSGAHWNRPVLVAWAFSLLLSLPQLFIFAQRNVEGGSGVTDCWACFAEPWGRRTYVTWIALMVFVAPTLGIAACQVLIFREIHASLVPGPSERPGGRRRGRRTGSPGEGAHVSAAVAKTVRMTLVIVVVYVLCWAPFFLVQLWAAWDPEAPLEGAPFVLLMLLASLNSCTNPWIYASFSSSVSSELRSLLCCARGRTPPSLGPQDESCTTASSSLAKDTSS

For the compound `COC(=O)[C@@H]1[C@H]2C[C@@H](c3[nH]c4ccccc4c3CCn3cc(-c4cccc(Cl)c4)nn3)N(C#N)C[C@@H]2CC[C@@H]1O`, the IC50 in test [1] came to 8.47 µM; in test [3], 7.29 µM; in test [4] it was 8.3 µM. Also, the result in [2], in [7] and in [8] was inactive. Besides, the inhibition in test [5] was 51%; in test [6], 90%; in [9] it was 92%.

As for `COC(=O)[C@@H]1[C@H]2C[C@@H]3N(CC[C@@]34C(=O)N(Cc3cccc(OC)c3)c3ccccc34)C[C@@H]2CC[C@@H]1OCc1cccc(OC)c1`, the IC50 result was “Dose-dependent effect” in test [10], 0.459 µM in test [10] (read-out: IC50) and 1.16 µM in [13]. Besides, the result in [2], in [7] and in test [8] was inactive. The inhibition in test [11] amounted to 9%; in [5], 56%; in [6] it was 88%; in test [9] it was 72%. In addition, the inhibition entry in test [12] was “Active”.
